In paper PMC10272112 (Nature Communications, 2023):
Several values for one entry are separate records, joined by “and”; a condition that tells them apart may be missing. Equal values may be shown once.

How the values were obtained:
DNTTIP1 = experiment: Chemoproteomic competition pulldown assay (co-competed MiDAC partner); format: binding
Description: (§1) To identify proteins directly bound by lipoic acid, we employed a chemoproteomic competition assay. Briefly, (R/S)-LA was immobilized on sepharose beads via an amidation reaction to form an affinity matrix (abbreviated as iL; Fig. 1a). This affinity matrix can be incubated with cell lysate to pull down potential LA or LM target proteins and identify these targets via bottom-up proteomics. In a competition assay, free LA or LM were incubated with lysate at different concentrations before pulling down and quantifying target proteins. […] (Fig. 1b, see “Methods” for details). […] The lysate buffer used in this assay contains 1 mM DTT to mimic the intracellular reductive milieu and to reduce lipoic acid and LM. […] Additional competition assays performed in lung adenocarcinoma cell A549 lysate also identified HDAC1, HDAC2, and HDAC6 as targets (Supplementary Fig. 1b). Amongst the three cell lines tested, HDACs were the only confidently identified targets across the 1500–3000 proteins quantified in these assays. […] We validated the results by analogous pulldown competition assays using two other affinity matrices prepared via the immobilization of either the HDAC inhibitor Quisinostat (iQ) and an analog of the class IIa HDAC inhibitor Bürli’s 31[14] (iC)[12]. We have previously shown that these affinity matrices specifically bind to the active sites of HDACs and have used them for HDACi selectivity profiling. Indeed, binding of (R/S)-LA and (R/S)-LM to HDAC1, HDAC2, HDAC3, HDAC6, and, to a lesser extent, HDAC8 was confirmed in these assays (Supplementary Fig. 1c, d). No binding to class IIa HDACs or the recently discovered common HDAC inhibitor off-target MBLAC2 was observed (Supplementary Fig. 1e)[12]. […] This observation might reflect electrostatic repulsion between the HDAC10 active site gate-keeper glutamic acid residues[15],[16] and the terminal carboxylic acid of LA.
(§2) To assess the degree of protein depletion from lysates by the affinity matrix, a second pulldown (PDPD) with fresh beads was performed using the unbound protein fraction from the vehicle control flow through. The beads were washed (1 × 1 mL of lysis buffer without inhibitors and only 0.4% Igepal, 2 × 2 mL of lysis buffer without inhibitors and only 0.2% Igepal), and captured proteins were denatured with 8 M urea buffer, alkylated with 55 mM chloroacetamide and digested with Trypsin according to standard procedures. The resulting peptides were desalted on a C18 filter plate (Sep-Pak® tC18 µElution Plate, Waters), vacuum dried, and stored at −20 °C until LC–MSMS measurement.
(§3) For the competition assays, relative binding was calculated based on the protein intensity ratio to the DMSO control for every single inhibitor concentration. EC50 values were derived from a four-parameter log-logistic regression with variable slope (constrain: bottom > 0). The obtained EC50 values were multiplied with a protein-dependent correction factor (cf), resulting in the apparent Kd value (Kd^app). The correction factor is determined by calculating the ratio of the protein intensity of two consecutive pulldowns of the vehicle control sample[13]. Targets of the inhibitors were annotated manually according to published procedures[12],[46],[47]. […] Additionally, the number of unique peptides and MSMS counts per condition were taken into account. Positive target binding across several independent experiments performed with different cell lysates further substantiated our confidence for a true positive drug-target binding event.

ELMSAN1 = experiment: as above; format: binding
Description: as §1, §2, §3

A549 cells = experiment: CellRox deep red assay for ROS quantification (with or without arsenite); format: cell-based; conditions: sheet 4d
[1] = iL, MV4-11 lysate, log10 M -3.52288
[2] = iL, MV4-11 lysate, log10 M -4.52288
[3] = iL, MV4-11 lysate, log10 M -5.52288
[4] = iL, MV4-11 lysate, log10 M -6.52288
[5] = iQ, SW620 lysate, log10 M -3.52288
[6] = iQ, SW620 lysate, log10 M -4.52288
[7] = iQ, SW620 lysate, log10 M -5.52288
[8] = iQ, SW620 lysate, log10 M -6.52288

Question: Which results are given for `NC(=O)CCCCC1CCSS1` (racemic) [(R/S)-LM, (R/S)-lipoamide]?
Answer: relative binding vs DMSO (DNTTIP1; [1]): 0.05556; relative binding vs DMSO (DNTTIP1; iL, MV4-11 lysate, log10 M -4): 0.04853; relative binding vs DMSO (DNTTIP1; [2]): 0.1384; relative binding vs DMSO (DNTTIP1; iL, MV4-11 lysate, log10 M -5): 0.4584; relative binding vs DMSO (DNTTIP1; [3]): 0.6943; relative binding vs DMSO (DNTTIP1; iL, MV4-11 lysate, log10 M -6): 0.6679; relative binding vs DMSO (DNTTIP1; [4]): 0.7085; relative binding vs DMSO (DNTTIP1; iL, MV4-11 lysate, log10 M -7): 0.9632; relative binding vs DMSO (DNTTIP1; [5]): 0.382; relative binding vs DMSO (DNTTIP1; iQ, SW620 lysate, log10 M -4): 0.3895; relative binding vs DMSO (DNTTIP1; [6]): 0.5292; relative binding vs DMSO (DNTTIP1; iQ, SW620 lysate, log10 M -5): 0.6889; relative binding vs DMSO (DNTTIP1; [7]): 0.738; relative binding vs DMSO (DNTTIP1; iQ, SW620 lysate, log10 M -6): 0.858; relative binding vs DMSO (DNTTIP1; [8]): 0.8975; relative binding vs DMSO (DNTTIP1; iQ, SW620 lysate, log10 M -7): 0.8297; relative binding vs DMSO (ELMSAN1; [1]): 0.05487; relative binding vs DMSO (ELMSAN1; iL, MV4-11 lysate, log10 M -4): 0.06564; relative binding vs DMSO (ELMSAN1; [2]): 0.1508; relative binding vs DMSO (ELMSAN1; iL, MV4-11 lysate, log10 M -5): 0.5058; relative binding vs DMSO (ELMSAN1; [3]): 0.6836; relative binding vs DMSO (ELMSAN1; iL, MV4-11 lysate, log10 M -6): 0.7193; relative binding vs DMSO (ELMSAN1; [4]): 0.7931; relative binding vs DMSO (ELMSAN1; iL, MV4-11 lysate, log10 M -7): 0.9008; relative binding vs DMSO (ELMSAN1; [5]): 0; relative binding vs DMSO (ELMSAN1; iQ, SW620 lysate, log10 M -4): 0; relative binding vs DMSO (ELMSAN1; [6]): 0.1474; relative binding vs DMSO (ELMSAN1; iQ, SW620 lysate, log10 M -5): 0.6579; relative binding vs DMSO (ELMSAN1; [7]): 0.8569; relative binding vs DMSO (ELMSAN1; iQ, SW620 lysate, log10 M -6): 0.8861; relative binding vs DMSO (ELMSAN1; [8]): 0.626; relative binding vs DMSO (ELMSAN1; iQ, SW620 lysate, log10 M -7): 0.8038; ROS (CellRox), relative to DMSO -Ars., Mean (A549 cells; R/S-LM +Ars): 1.413; ROS (CellRox), relative to DMSO -Ars., replicate values (A549 cells; R/S-LM +Ars): 1.506 and 1.194 and 1.54; ROS (CellRox), relative to DMSO -Ars., Mean (A549 cells; R/S-LM -Ars): 1.131; ROS (CellRox), relative to DMSO -Ars., replicate values (A549 cells; R/S-LM -Ars): 1.077 and 0.9596 and 1.357
